In patent EP0308020A2, “5-(aryl and heteroaryl)-6-(aryl and heteroaryl)-1,2-dihydro-2-oxo 3-pyridinecarboxylic acids and derivatives thereof” (Merck & Co., Inc., priority 1987, dated 1989):
Values after ≈ are worked out from the molar mass of the structure shown. Where two headings read alike, the source gives them in different places.

Tests used:
Experiment in all cases: Agar diffusion assay for antibacterial activity (MIC)
Assay type in all cases: cell-based
[1] = tested on: Staphylococcus aureus MB 4310; conditions: read-out: Minimum inhibitory conc.
Method: (§1) A stock solution of each test compound was prepared at a concentration of 1.28 mg/ml using sterile distilled water. After initial solubilization, two-fold dilutions were prepared and added as one-ml portions to 15 x 100 mm petri plates. A nine-ml portion of trypticase soy agar (TSA) was melted and added to each plate. The test compound and agar were mixed and allowed to cool. […] Controls were prepared using norfloxacin, coumermycin A-1, or novobiocin, and solvent.
(§2) Each plate was inoculated using a multipoint inoculator with 10⁵ colony-forming units (cfu) of the appropriate bacterium. Each bacterium was stored at -70°C before use and cultured in trypticase soy broth (TSB) at 35°C for 18 hours. The cultures, containing ca. 10⁹ cfu/ml, were diluted as necessary with TSB to provide concentrations of 10⁵ cfu/inoculation spot. The test plates were then incubated at 35°C for 20 hours. Minimum inhibitory concentrations (MIC) for each compound was the lowest concentration that allowed no growth, a barely visible haze, of five or fewer discrete colonies.
(§3) Table VI includes biological test results for representative compounds of this invention using the agar diffusion assay described above. The particular bacterial strains used are representative of organisms for which the compounds are useful as antibacterial agents.

[2] = tested on: Proteus mirabilis MB 2830; conditions: read-out: Minimum inhibitory conc.
Method: as §1, §2, §3

[3] = tested on: Streptococcus faecalis MB 2864; conditions: Enterococcus faecalis, read-out: Minimum inhibitory conc.
Method: as §1, §2, §3

[4] = tested on: Pseudomonas aeruginosa MB 5160 (Norfloxacin-resistant strain); conditions: 20 h, read-out: Minimum inhibitory conc.
Method: as §1, §2, §3

Escherichia coli MB 5157 = conditions: read-out: Minimum inhibitory conc.
Method: as §1, §2, §3

Escherichia coli MB 2891 = conditions: read-out: Minimum inhibitory conc.
Method: as §1, §2, §3

[5] = tested on: Staphylococcus aureus MB 2865; conditions: read-out: Minimum inhibitory conc.
Method: as §1, §2, §3

[6] = tested on: Pseudomonas aeruginosa MB 2835; conditions: MB2835, Ps. aer., strain MB 2835, trypticase soy agar, 10⁵ cfu, 35°C, 20 hours, read-out: Minimum inhibitory conc.
Method: as §1, §2, §3

[7] = tested on: Klebsiella pneumoniae MB 4005; conditions: read-out: Minimum inhibitory conc.
Method: as §1, §2, §3

[8] = tested on: Escherichia coli MB 5158 (Norfloxacin-resistant strain); conditions: 20 h, read-out: Minimum inhibitory conc.
Method: as §1, §2, §3

[9] = MB4310, St. aur., strain MB 4310, trypticase soy agar, 10⁵ cfu, 35°C, 20 hours
[10] = MB2830, Pr. mir., strain MB 2830, trypticase soy agar, 10⁵ cfu, 35°C, 20 hours
[11] = MB2864, Str. fae., strain MB 2864, trypticase soy agar, 10⁵ cfu, 35°C, 20 hours
[12] = MB5157, E. coli, strain MB 5157, trypticase soy agar, 10⁵ cfu, 35°C, 20 hours
[13] = MB2891, E. coli, strain MB 2891, trypticase soy agar, 10⁵ cfu, 35°C, 20 hours
[14] = MB2865, St. aur., strain MB 2865, trypticase soy agar, 10⁵ cfu, 35°C, 20 hours
[15] = MB4005, K. pneu., strain MB 4005, trypticase soy agar, 10⁵ cfu, 35°C, 20 hours

SMILES | MIC [1, 9] [µg/mL] | MIC [2, 10] [µg/mL] | MIC [3, 11] [µg/mL] | MIC [4] [µg/mL] | MIC (Escherichia coli MB 5157; [12]) [µg/mL] | MIC (Escherichia coli MB 2891; [13]) [µg/mL] | MIC [5, 14] [µg/mL] | MIC [6] [µg/mL] | MIC [7, 15] [µg/mL] | MIC [8] [µg/mL] | MIC ([2]; MB2830, 20 h) [µg/mL] | MIC (Escherichia coli MB 5157; MB5157, 20 h) [µg/mL] | MIC (Escherichia coli MB 2891; MB2891, 20 h) [µg/mL] | MIC ([7]; MB4005, 20 h) [µg/mL] | MIC ([1]; MB4310, 20 h) [µg/mL] | MIC ([3]; MB2864, 20 h) [µg/mL] | MIC ([5]; MB2865, 20 h) [µg/mL]
CN(C)c1ccc(-c2[nH]c(=O)c(C(=O)O)cc2-c2ccc(O)cc2)cc1 [Example 30] | 0.25 (≈ 0.714 µM) | 8 (≈ 22.8 µM) | 0.5 (≈ 1.43 µM) | > 128 | 0.25 (≈ 0.714 µM) | 0.25 (≈ 0.714 µM) | 0.25 (≈ 0.714 µM) | > 128 | < 0.25 | > 128 | – | – | – | – | – | – | –
COc1ccc(-c2[nH]c(=O)c(C(=O)O)cc2-c2ccc(F)cc2)cc1 [Example 32, 5-(4-Fluorophenyl)-1,2-dihydro-6-(4-methoxyphenyl)-2-oxo-3-pyridinecarboxylic acid] | 1 (≈ 2.95 µM) | 32 (≈ 94.3 µM) | 16 (≈ 47.2 µM) | > 128 | 4 (≈ 11.8 µM) | 16 (≈ 47.2 µM) | 2 (≈ 5.89 µM) | > 128 | 1 (≈ 2.95 µM) | > 128 | – | – | – | – | – | – | –
CN(C)c1ccc(-c2[nH]c(=O)c(C(=O)O)cc2-c2ccc(F)cc2)cc1 [Example 33] | 2 (≈ 5.68 µM) | 128 (≈ 363 µM) | 128 (≈ 363 µM) | > 128 | 8 (≈ 22.7 µM) | 16 (≈ 45.4 µM) | 2 (≈ 5.68 µM) | > 128 | 8 (≈ 22.7 µM) | > 128 | – | – | – | – | – | – | –
CN(C)c1ccc(-c2[nH]c(=O)c(C(=O)O)cc2-c2ccc(O)cc2)cc1F [Example 34] | 8 (≈ 21.7 µM) | – | 16 (≈ 43.4 µM) | > 128 | 16 (≈ 43.4 µM) | 4 (≈ 10.9 µM) | 2 (≈ 5.43 µM) | > 128 | 16 (≈ 43.4 µM) | > 128 | > 128 | – | – | – | – | – | –
CN(C)c1ccc(-c2[nH]c(=O)c(C(=O)O)cc2-c2ccc(O)cc2)c(F)c1 [Example 35] | 1 (≈ 2.71 µM) | 32 (≈ 86.9 µM) | 4 (≈ 10.9 µM) | > 128 | 1 (≈ 2.71 µM) | 1 (≈ 2.71 µM) | 0.5 (≈ 1.36 µM) | > 128 | 1 (≈ 2.71 µM) | > 128 | – | – | – | – | – | – | –
CSc1ccc(-c2[nH]c(=O)c(C(=O)O)cc2-c2ccc(F)cc2)cc1 [Example 36, 5-(4-fluorophenyl)-1,2-dihydro-6-[4-(methylthio)phenyl]-2-oxo-3-pyridine carboxylic acid] | 8 (≈ 22.5 µM) | – | 64 (≈ 180 µM) | > 128 | 16 (≈ 45 µM) | 64 (≈ 180 µM) | 8 (≈ 22.5 µM) | > 128 | 16 (≈ 45 µM) | > 128 | > 128 | – | – | – | – | – | –
O=C(O)c1cc(-c2ccc(F)cc2)c(-c2ccc(N3CCCCC3)cc2)[nH]c1=O [Example 42] | 1 (≈ 2.55 µM) | – | 64 (≈ 163 µM) | > 128 | – | – | 1 (≈ 2.55 µM) | > 128 | – | > 128 | > 128 | > 128 | > 128 | > 128 | – | – | –
O=C(O)c1cc(-c2ccc(F)cc2)c(-c2ccc(N3CCOCC3)cc2)[nH]c1=O [Example 43] | 4 (≈ 10.1 µM) | 128 (≈ 325 µM) | 64 (≈ 162 µM) | > 128 | 8 (≈ 20.3 µM) | 16 (≈ 40.6 µM) | 4 (≈ 10.1 µM) | > 128 | 16 (≈ 40.6 µM) | > 128 | – | – | – | – | – | – | –
CN1CCN(c2ccc(-c3[nH]c(=O)c(C(=O)O)cc3-c3ccc(F)cc3)cc2)CC1 [Example 44] | 16 (≈ 39.3 µM) | – | 128 (≈ 314 µM) | > 128 | 16 (≈ 39.3 µM) | 8 (≈ 19.6 µM) | 32 (≈ 78.5 µM) | > 128 | 32 (≈ 78.5 µM) | > 128 | > 128 | – | – | – | – | – | –
CS(=O)(=O)c1ccc(-c2[nH]c(=O)c(C(=O)O)cc2-c2ccc(F)cc2)cc1 [Example 47, 5-(4-Fluorophenyl)-1,2-dihydro-6-[4-(methylsulfonyl)phenyl]-2-oxo-3-pyridinecarboxylic acid] | – | – | – | > 128 | – | – | – | > 128 | – | > 128 | > 128 | > 128 | > 128 | > 128 | > 128 | > 128 | > 128
C[S+]([O-])c1ccc(-c2[nH]c(=O)c(C(=O)O)cc2-c2ccc(F)cc2)cc1 (stereo not drawn) [Example 48] | – | – | – | > 128 | – | – | – | > 128 | – | > 128 | > 128 | > 128 | > 128 | > 128 | > 128 | > 128 | > 128
C[N+](C)([O-])c1ccc(-c2[nH]c(=O)c(C(=O)O)cc2-c2ccc(F)cc2)cc1 [Example 49] | 0.5 (≈ 1.36 µM) | 64 (≈ 174 µM) | 16 (≈ 43.4 µM) | > 128 | 4 (≈ 10.9 µM) | 32 (≈ 86.9 µM) | 1 (≈ 2.71 µM) | > 128 | 8 (≈ 21.7 µM) | > 128 | – | – | – | – | – | – | –
C[N+](C)([O-])c1ccc(-c2[nH]c(=O)c(C(=O)O)cc2-c2ccc(O)cc2)cc1 [Example 50] | 8 (≈ 21.8 µM) | 128 (≈ 349 µM) | 16 (≈ 43.7 µM) | > 128 | 8 (≈ 21.8 µM) | 8 (≈ 21.8 µM) | 4 (≈ 10.9 µM) | > 128 | 16 (≈ 43.7 µM) | > 128 | – | – | – | – | – | – | –
CN(C)c1ccc(-c2c(-c3ccc(O)cc3)cc(C(=O)O)c(=O)n2C)cc1 [Example 51, 6-[4-(Dimethylamino)phenyl]-1,2-dihydro-5-(4-hydroxyphenyl)-1-methyl-2-oxo-3-pyridinecarboxylic acid] | 0.5 (≈ 1.37 µM) | 32 (≈ 87.8 µM) | 128 (≈ 351 µM) | > 128 | 2 (≈ 5.49 µM) | 0.5 (≈ 1.37 µM) | 1 (≈ 2.74 µM) | > 128 | 16 (≈ 43.9 µM) | > 128 | – | – | – | – | – | – | –
CN(C)c1ccc(-c2c(-c3ccc(F)cc3)cc(C(=O)O)c(=O)n2C)cc1 [Example 52] | 2 (≈ 5.46 µM) | – | – | > 128 | 4 (≈ 10.9 µM) | 2 (≈ 5.46 µM) | 2 (≈ 5.46 µM) | > 128 | 64 (≈ 175 µM) | > 128 | > 128 | – | – | – | – | > 128 | –
